“Also recorded” adds a separate entry of the source.
Columns and labels:
hUCB-MSC [1] = assay: Cell cycle analysis of hUCB-MSC; type: cell-based; conditions: pimecrolimus 0.01 to 100 ng/ml, 3 days; FIG. 2C
Description: Next, the stem cells (hUCB-MSC) were cultured and treated with various concentrations of pimecrolimus for 3 days, and then the change in cell cycle profile of hUCB-MSC were compared using cell cycle analysis (FIG. 2C).

[2] = test system: TGF-β expressed in hUCB-MSCs; assay: TGF-β ELISA of hUCB-MSC supernatant; type: cell-based, human; conditions: pimecrolimus 0.01 to 100 ng/ml, 72 hours, FIG. 4A
Description: (§1) Specifically, hUCB-MSCs were seeded in a 6-well cell culture plate at a density of 1.5×10^5 cells per well. After 24 hours of incubation, hUCB-MSCs were treated with pimecrolimus at various concentrations and further incubated for 72 hours. After the incubation was completed, the supernatant was collected by centrifugation and the thus-obtained supernatant was applied to Human […] Quantikine ELISA (R&D Systems, Minneapolis, MN, USA) and Human PGE2. Quantikine ELISA (R&D Systems) to analyze the expression level of TGF-β or prostaglandin E2 (PGE2) (FIGS. 4A and 4B).

hUCB-MSC [3] = assay: Proliferative capacity of hUCB-MSC; type: cell-based; conditions: pimecrolimus 0.01 to 100 ng/ml, 3 days; FIG. 2B
Description: Next, the stem cells (hUCB-MSC) were cultured and treated with various concentrations of pimecrolimus for 3 days, and then the change in proliferative capacity of hUCB-MSC were compared (FIG. 2B).

[4] = test system: COX2 expressed in hUCB-MSCs; assay: Western blot of COX2 in hUCB-MSC lysate; type: cell-based; conditions: pimecrolimus 0.01 to 100 ng/ml, 72 hours, GAPDH internal control, FIG. 4C
Description: hUCB-MSCs treated with pimecrolimus were obtained according to the method of Example 3-2, centrifuged to collect the precipitated cells, and then disrupted to obtain cell lysate. Subsequently, Western blot analysis was performed using the thus-obtained cell lysate and COX2 antibodies (FIG. 4C). In particular, GAPDH was used as an internal control.

hUCB-MSC [5] = assay: MTT assay, cell viability of hUCB-MSC; type: cell-based; conditions: pimecrolimus various concentrations, 3 days, FIG. 2A
Description: First, the stem cells (hUCB-MSC) were cultured and treated with various concentrations of pimecrolimus for 3 days, and then the change in cell viability of hUCB-MSC were compared using the MTT assay (FIG. 2A).

hUCB-MSC [6] = assay: Cellular morphology of hUCB-MSC; type: cell-based; conditions: pimecrolimus 0.01 to 100 ng/ml, 3 days; FIG. 2D
Description: Next, the stem cells (hUCB-MSC) were cultured and treated with various concentrations of pimecrolimus for 3 days, and then the change in cellular morphology of hUCB-MSC were compared (FIG. 2D).

[7] = test system: PGE2 expressed in hUCB-MSCs; assay: PGE2 ELISA of hUCB-MSC supernatant; type: cell-based, human; conditions: pimecrolimus 0.01 to 100 ng/ml, 72 hours, FIG. 4B
Description: as §1

[8] = test system: hUCB-MSC surface markers (CD45, CD34, CD36, CD105, CD29, CD73); assay: Flow cytometry of surface markers of hUCB-MSC; type: cell-based; conditions: pimecrolimus 100 ng/ml, 3 days, FIG. 2E
Description: Lastly, the stem cells (hUCB-MSC) were cultured and treated with 100 ng/ml of pimecrolimus for 3 days, and then the expression levels of surface markers (CD45, CD34, CD36, CD105, CD29, CD73) of hUCB-MSC were compared using flow cytometry. (FIG. 2E).

[9] = test system: PBMC cells treated with Concanavalin A (ConA); assay: MLR analysis, immunosuppressive activity on ConA-treated PBMC; type: cell-based
Description: PBMC cells treated with Concanavalin A (ConA) were cultured and treated with pimecrolimus and mesenchymal stem cells (hUCB-MSC) individually or in combination, and then the immunosuppressive activity measured in each experimental group was compared (FIG. 3). In particular, PBMC cells that were not treated with ConA, not co-cultured with hUCB-MSC, and not treated with pimecrolimus were used as the negative control (NC), and as the positive control (PC) treated with ConA, PBMC cells that were not co-cultured with hUCB-MSC and not treated with pimecrolimus were used as the positive control (PC).
Specifically, PBMC cells treated with Concanavalin A (ConA) were cultured and treated with pimecrolimus and hUCB-MSC individually or in combination, and then the immunosuppressive activity measured in each experimental group was compared.
In particular, 10 experimental groups were set according to the combination pattern of pimecrolimus and hUCB-MSC (Table 1)

In the case of `CC[C@@H]1/C=C(\C)C[C@H](C)C[C@H](OC)[C@H]2O[C@@](O)(C(=O)C(=O)N3CCCC[C@H]3C(=O)O[C@H](/C(C)=C/[C@@H]3CC[C@H](Cl)[C@H](OC)C3)[C@H](C)[C@@H](O)CC1=O)[C@H](C)C[C@@H]2OC` [pimecrolimus], the “change in cell cycle profile of hUCB-MSC” value (hUCB-MSC [1]) is reported as “did not change the cell cycle profile”, the “level of TGF-β expressed in hUCB-MSCs” value [2] is reported as “did not show a significant change” and the “change in proliferative capacity of hUCB-MSC” value (hUCB-MSC [3]) is reported as “did not change the proliferative capacity”. The “level of COX2 expressed in hUCB-MSCs” value [4] was “rapidly reduced in proportion to the treatment concentrations; also recorded: inhibit the expression of COX2”, the “change in cell viability of hUCB-MSC” value (hUCB-MSC [5]) was “did not change the cell viability” and the “change in cellular morphology of hUCB-MSC” value (hUCB-MSC [6]) was “did not change the cellular morphology”. The “level of PGE2 expressed in hUCB-MSCs” value [7] was “rapidly reduced in proportion to the treatment concentrations”, the “expression levels of surface markers of hUCB-MSC” value [8] was “did not change the expression levels of surface markers” and the “immune activity of ConA-treated PBMC (immunosuppressive activity)” value ([9]; Example 3-1, treated individually or in combination, versus ConA positive control, FIG. 3) was “the immune activity was suppressed”. For the same compound, the “immunosuppressive activity, separate treatment” value ([9]; each treated alone, 3 to 7 days or 5 to 7 days (Experimental Groups 2 and 3; 5 and 9), FIG. 5A) was “comparatively superior over the immunosuppressive activity of hUCB-MSCs”.

From patent publication US20240366679A1, “METHOD FOR TREATING IMMUNE DISEASES USING CALCINEURIN INHIBITOR AND STEM CELLS” (KANGSTEM BIOTECH CO., LTD., priority 2021, published 2024)
